Key:
[1] = target: T1, cloned canine GHSR (Canis lupus familiaris, UniProt A5HKU8); experiment: [35S]-MK-677 competition binding, cloned canine GHSR membranes; details: competition with 35S-MK-677, crude membranes of transfected COS-7 or HEK-293 cells, 20° C., 1 hr
T1 construct: full-length open reading frame placed in the mammalian expression vector pcDNA-3; expressed in transfected cells; host or cells: COS-7 or HEK-293 (crude membranes)
Protocol: Expression of the canine -GHSR was monitored using a [^35S]-MK-677 binding assay conducted on cells transfected with a canine GHSR expression plasmid (full-length open reading frame placed in the mammalian expression vector pcDNA-3). Mammalian cells (COS-7, HEK-293) were transfected with GHSR expression plasmids using Lipofectamine (GIBCO-BRL; Hawley-Nelson, 1993, Focus 15:73). Transfections were performed in 60 mm dishes on 80% confluent cells (approximately 4×10^5cells) with 8 μg of Lipofectamine and 32 μg of GHSR plasmid DNA.
Binding of ^35S-MK-677 to crude membranes prepared from COS-7 or HEK-293 cells transfected with GHSR expression plasmids was conducted. Crude cell membranes from COS-7 transfectants were prepared on ice, 48 hrs post-transfection. Each 60 mm dish was washed twice with 3 ml of PBS, once with 1 ml homogenization buffer (50 mM Tris-HCl (pH 7.4), 5 mM MgCl2, 2.5 mM EDTA, 30 μg/ml bacitracin). 0.5 ml of homogenization buffer was added to each dish, cells were removed by scraping and then homogenized using a POLYTRON device (Brinkmann, Syosset, N.Y.; 3 bursts of 10 seconds at setting 4). […] After application of the membrane suspension to the filter, the filters were washed 3 times with 3 ml each of ice cold 50 mM Tris-HCl (pH 7.4), 10 mM MgCl2, 2.5 mM-EDTA, and 0.015% Triton X-100, and the bound radioactivity on the filters was quantitated by scintillation counting.

[2] = target: T2, native canine pituitary GHSR (Canis lupus familiaris, UniProt A5HKU8); experiment: [35S]-MK-677 competition binding, native canine pituitary GHSR; details: comparison value
T2 construct: native canine pituitary GHSR; from tissue; host or cells: canine pituitary
T2 sequence (A5HKU8 1-349): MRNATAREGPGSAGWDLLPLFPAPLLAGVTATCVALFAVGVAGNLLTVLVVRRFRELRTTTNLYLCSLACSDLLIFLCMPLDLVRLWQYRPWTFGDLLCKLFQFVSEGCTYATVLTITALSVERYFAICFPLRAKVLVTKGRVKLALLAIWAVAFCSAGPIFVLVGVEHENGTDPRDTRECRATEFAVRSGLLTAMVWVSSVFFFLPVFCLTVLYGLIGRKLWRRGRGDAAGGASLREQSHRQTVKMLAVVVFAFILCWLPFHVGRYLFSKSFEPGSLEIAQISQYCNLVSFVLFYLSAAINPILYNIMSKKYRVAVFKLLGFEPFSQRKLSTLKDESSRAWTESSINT

T1 sequence (A5HKU8 1-349): as above

`CC(C)(N)C(=O)N[C@H](COCc1ccccc1)C(=O)N1CCC2(CC1)CN(S(C)(=O)=O)c1ccccc12` [MK-677] showed an IC50 [1] of 2.2 nM and an IC50 [2] of 1 nM.

From patent publication US6645726B1, “Canine growth hormone secretagogue receptor” (Merck & Co., Inc., priority 1998, dated 2003)
